Like-named read-outs stand apart in the source and are kept apart here.
Assays:
p185HER2/neu = settings: binding to p185HER2/neu; ref [22],[23],[24]; cited from earlier work
From the text: AHNP peptide was able to disable HER2 tyrosine kinases in vitro and in vivo similar to the monoclonal antibody from which it was derived. […] It has been shown that AHNP diminished the early tyrosine phosphorylation of p185HER2/neu, and inhibited proliferation of p185HER2/neu overexpressing tumor cells in ...

[1] = format: physicochemical
From the text: Table 1 Characterization of ^99mTc-HER2 and ^99mTc-MUC1 peptides. | column: Log P (Octanol/Saline)

[2] = Radio-HPLC retention time on C18 reversed-phase column; format: physicochemical; settings: Econosphere C18 (10 μm, 250 × 4.6 mm), 0.1% TFA water/CH3CN, 5 to 95% B over 30 min, 1.1 mL/min, longer retention ascribed to higher lipophilicity
Description: The HPLC analysis and purification of the peptides were performed on a Shimadzu HPLC system using Econosphere C18 reversed-phase column (10 μm, 250 × 4.6 mm, Alltech, Deerfield, IL, USA). For HPLC experiments, a gradient solvent system of 0.1% (v/v) TFA in water (solvent A) and 0.1% (v/v) TFA in CH3CN (solvent B) at a flow rate of 1.1 mL/min was used. The HPLC gradient began with a solvent composition of 95% A and 5% B from 0 to 2.5 min followed by a linear gradient of 95% A and 5% B to 5% A and 95% B over 30 min. The gradient remained at this position for 3 min before switching back to 95% A and 5% B for another 7 min. The main peak of each radiolabeled peptide was isolated, and acetonitrile then evaporated under a stream of nitrogen gas. The HPLC system (Shimadzu Corporation, Kyoto, Japan) was equipped with a UV-VIS detector (Shimadzu Corporation, Kyoto, Japan) set at 220 nm, a Flow-count γ-radioactivity detection system (Bioscan Inc., Washington, DC, USA) and the Lauralite HPLC chromatogram analysis program (LabLogic Systems Ltd., Sheffield, UK). Radiochemical purity was estimated by evaluating radioactivity peaks eluted for each ^99mTc-labeled peptide from the HPLC column and calculating the area under the peak (ROI). The HPLC-purified compounds were reconstituted in sterile saline and used for in vitro and in vivo experiments.

[3] = system: MCF7 breast cancer cell line; test: In vitro tumor cell binding (saturation, Kd); design: species or system human; settings: ~300,000 cells, 0.1-30 nM radiopeptide, 60 min, room temperature, duplicate, non-specific with ~200-fold excess unlabeled peptide, mean ± SD
Description: (§1) The cell-binding studies of ^99mTc-labeled HER2 and MUC1 peptides into respective HER2 and MUC1-positive human breast cancer cell lines (American Type Culture Collection, Rockville, MD, USA) was performed according to the method described previously. In brief, ~300,000 cells (in 0.3 mL low-serum media) were incubated with various amounts of radiopeptides, ranging between 0.1 and 30 nM of peptides (prepared from the serial dilutions of HPLC-purified radiopeptides), in duplicate for 60 min at room temperature. Incubation was terminated by dilution with cold saline (0.3 mL) and the cells were pelleted by centrifugation. The cell-pellets was then rapidly washed with cold saline to remove any unbound peptide and centrifuged to collect supernatants. Radioactivity in the cell-pellet and the washings was measured in a γ-counter. Non-specific binding was determined in the presence of ~200-fold molar excess of unlabeled peptide. Specific binding was calculated by subtracting the non-specifically bound radioactivity from that of the total binding. The dissociation constant (Kd) was calculated using a plot of specific cell-bound radioactivity versus increasing concentrations of the radiopeptide using a nonlinear regression analysis program (GraphPad Prism Software Inc., San Diego, CA, USA).

[4] = system: T47D breast cancer cell line; test: In vitro tumor cell binding (saturation, Kd); design: species or system human; settings: for Kd: T47D, ~300,000 cells, 0.1-30 nM radiopeptide, 60 min, room temperature, duplicate, non-specific with ~200-fold excess unlabeled peptide, mean ± SD
Description: as §1

MCF7 cells = test: Cellular internalization (acid wash); format: cell-based, human; settings: % of cell-surface bound radiopeptide internalized, acidic buffer pH 5.0, 10 min, 37 °C
Description: (§2) In order to differentiate between cell-surface bound and cellular internalized radioactivity, cell pellet was treated with 0.3 mL of acidic buffer (0.02 M sodium acetate in saline, pH 5.0) for 10 min at 37 °C at the end of the binding experiment, followed by centrifugation and washing with cold acidic buffer. The amount of cell surface-bound (acid-wash) and internalized (acid-resistant) radioactivity was determined by measuring the radioactivity of the supernatant and the cell-pellet, respectively, in a γ-counter.

T47D cells = test: Cellular internalization (acid wash); format: cell-based, human; settings: % of cell-surface bound radiopeptide internalized, acidic buffer pH 5.0, 10 min, 37 °C
Description: as §2

[5] = design: species or system Balb/c mice; settings: mouse, in vivo, iv
Description: Approval for the animal protocol used in this study was obtained from the Institutional Animal Care and Use Committee. Animal studies were conducted according to the international regulations governing the safe and proper use of laboratory animals [48]. In vivo biodistribution studies were performed on healthy Balb/c mice (n = 3–5 in each group, body mass 19–22 g) at 1 and 4 h after i.v. injection of the HPLC-purified radiopeptide (100 μL, 10–15 μCi, total peptide dose ~10 ng) via the lateral tail vein as described previously [54]. Mice were euthanized by cervical dislocation at specified times, the selected tissues/organs were removed, and radioactivity was measured in a γ-counter. Uptake of radioactivity in the tissues and organs was expressed as the percent injected dose per gram (% ID/g) of tissue/organ, which was calculated by comparison with standard solutions representing 10% of the injected dose per animal. For the clearance studies, radioactivity in the urine with bladder is expressed as the percent of the injected dose per organ (% ID/organ).

[6] = system: MDA-MB-231 breast xenografts; test: In vivo tumor targeting, MDA-MB-231 xenografts (negative control); settings: nude mice, HER2-/MUC1-negative MDA-MB-231 xenografts, mean ± SD
MCF7 tumor xenografts = settings: for tumor uptake: nude mice, mean ± SD
Description: (§3) In vivo biodistribution studies were performed on healthy Balb/c mice (n = 3–5 in each group, body mass 19–22 g) at 1 and 4 h after i.v. injection of the HPLC-purified radiopeptide (100 μL, 10–15 μCi, total peptide dose ~10 ng) via the lateral tail vein as described previously [54]. Mice were euthanized by cervical dislocation at specified times, the selected tissues/organs were removed, and radioactivity was measured in a γ-counter. Uptake of radioactivity in the tissues and organs was expressed as the percent injected dose per gram (% ID/g) of tissue/organ, which was calculated by comparison with standard solutions representing 10% of the injected dose per animal. For the clearance studies, radioactivity in the urine with bladder is expressed as the percent of the injected dose per organ (% ID/organ).
(§4) Approximately 7 million HER2-positive SKBR3 cells and MUC1-positive MCF7 and T47D breast tumor xenografts were injected subcutaneously into a group of nude female mice and allowed to grow for 4 to 6 weeks. After sufficient growth of tumors, the animals were sacrificed and the uptake of ^99mTc-HER2 and ^99mTc-MUC1 by the tumors and other major organs was determined by biodistribution experiments, as described above.
(§5) In general, for preclinical gamma camera imaging, each tumor-bearing mouse model was intravenously injected with ~200 μCi of ^99mTc-HER2 or ^99mTc-MUC1 peptide through the tail vein. Mouse static planar images were then acquired at 1 h after the radiotracer injection by a portable hand-held γ-camera equipped with CsI(Tl) scintillation detector, with intrinsic spatial resolution of 2.45 mm (IP guardian 2, Li-Tech, Italy).

T47D tumor xenografts = settings: for tumor uptake: nude mice, mean ± SD
Description: as §3, §4

[7] = system: breast carcinoma xenografts; settings: radiolabeled KCCYSL peptides, ref [8],[19]; cited from earlier work
From the text: Several small peptide molecules have been developed in recent years for targeting HER2-positive breast cancer. For example, a 6-amino-acid containing peptide, KCCYSL, was discovered by the phage display method after in vitro selection with a recombinant ERBB2 extracellular domain. The KCCYSL peptide, derivatized with different metal chelators (i.e., DOTA, NOTA, CB-TE2A, and DAP) and radiolabeled with radionuclide metal ions (e.g., ^111In, ^64Cu, ^99mTc), has been successfully used for in vivo imaging of HER2 overexpressing tumor models. The tumor cell binding affinity (Kd) of KCCYSL for ...

[8] = system: HER2-positive SKBR3 breast cancer cell line; test: In vitro tumor cell binding (saturation, Kd); design: species or system human
Description: as §1

SKBR3 cells = test: Cellular internalization (acid wash); format: cell-based, human; settings: % of cell-surface bound radiopeptide internalized, acidic buffer pH 5.0, 10 min, 37 °C
Description: as §2

[9] = system: HER2-positive SKBR3 tumor xenografts; settings: for tumor uptake: nude mice, n = 3-5, mean ± SD
Description: as §3, §4, §5

[10] = biological target: human epidermal growth factor receptor 2 (HER2) (human (endogenous in SKBR3, MCF7, T47D)) (UniProt P04626); test: radioligand binding; saturation binding of 99mTc-labeled peptide (0.1-30 nM) to ~300,000 MCF7 cells in low-serum media, 60 min, room temperature; non-specific binding with ~200-fold molar excess of unlabeled peptide; nonlinear regression
[11] = biological target: human epidermal growth factor receptor 2 (HER2) (human (endogenous in SKBR3, MCF7, T47D)) (UniProt P04626); test: radioligand binding; saturation binding of 99mTc-labeled peptide (0.1-30 nM) to ~300,000 T47D cells in low-serum media, 60 min, room temperature; non-specific binding with ~200-fold molar excess of unlabeled peptide; nonlinear regression
[12] = MCF7 xenografts, 1 h p.i., unblocked

FCDGFYACYADVGGG [AHNP, anti-HER2/neu peptidomimetic designed from heavy-chain CDR3 loop of trastuzumab]
Kd (p185HER2/neu): 150 nM

Ac-GGCEPDTRP-NH2 [^99mTc-MUC1]
Log P (Octanol/Saline) [1]: −2.22 ± 0.12
HPLC Retention Time [2]: 14.10 min
Kd [3]: 10.3 ± 1.55 nM
Kd [4]: 3.48 ± 0.84 nM
binding affinity higher to T47D cell line compared to MCF7 cell line ([4]; ratio of Kd values): 3 fold
% Internalization (MCF7 cells): 18.92 ± 2.16%
% Internalization (T47D cells): 21.11 ± 2.95%
radioactivity found in the urine [5]: up to 47.0 ± 6.28 % ID
tumor uptake ([6]; 1 h p.i.): 0.64 ± 0.13 % ID/g
tumor uptake ([6]; 4 h p.i.): 0.41 ± 0.10 % ID/g
tumor-to-blood ratio (MCF7 tumor xenografts; MCF7 xenografts, 1 h p.i.): 2.39
tumor-to-muscle ratio (MCF7 tumor xenografts; MCF7 xenografts, 1 h p.i.): 18.47
tumor-to-blood ratio (MCF7 tumor xenografts; MCF7 xenografts, 4 h p.i.): 1.09
tumor-to-muscle ratio (MCF7 tumor xenografts; MCF7 xenografts, 4 h p.i.): 11.20
washout from the tumors (MCF7 tumor xenografts; MCF7 xenografts, over 4 h): 60%
tumor uptake, blocked (MCF7 tumor xenografts; MUC1-positive (MCF7) xenografts, 100 μg of unlabeled MUC1 peptide 30 min before injection of radiopeptide): 1.05 ± 0.21 % ID/g
reduction of tumor uptake by blocking dose (MCF7 tumor xenografts; MUC1-positive (MCF7) xenografts, 100 μg unlabeled MUC1 peptide 30 min before, P = 0.02): approximately 62%
hepatobiliary excretion (liver + intestines) (MCF7 tumor xenografts; mouse, in vivo): below 13 % ID
radioactivity excreted in the urine (MCF7 tumor xenografts; mouse, in vivo): up to 49 % ID
tumor uptake (MCF7 tumor xenografts; [12]): 2.77 ± 0.63 % ID/g
tumor uptake (MCF7 tumor xenografts; MCF7 xenografts, 4 h p.i.): 1.12 ± 0.30 % ID/g
gamma camera imaging of tumor (MCF7 tumor xenografts; nude mouse, MCF7 xenograft, 1 h p.i., ~200 μCi i.v.): detectable in the image
tumor-to-blood ratio (T47D tumor xenografts; T47D xenografts, 1 h p.i.): 3.27
tumor-to-muscle ratio (T47D tumor xenografts; T47D xenografts, 1 h p.i.): 12.62
tumor-to-muscle ratio (T47D tumor xenografts; T47D xenografts, 4 h p.i.): 11.40
accumulation in the kidneys (T47D tumor xenografts; mouse, in vivo): 2.26 ± 0.36 % ID/g
cleared from the kidneys (T47D tumor xenografts; mouse, in vivo): 48%
hepatobiliary excretion (T47D tumor xenografts; mouse, in vivo): below 13 % ID
initial accumulation in the kidneys (T47D tumor xenografts; mouse, in vivo): 4.35 ± 1.0 % ID/g
radioactivity remaining in the blood circulation (T47D tumor xenografts; mouse, in vivo): 0.30 ± 0.07 % ID/g
tumor uptake (T47D tumor xenografts; T47D xenografts, 1 h p.i.): 2.65 ± 0.54 % ID/g
tumor uptake (T47D tumor xenografts; T47D xenografts, 4 h p.i.): 1.14 ± 0.21 % ID/g

KCCYSL [literature values for chelator-derivatized, radiolabeled forms]
tumor uptake [7]: below 1 % ID/g

Acetyl-Gly^19-Gly^18-Cys^17-ALA^16-Lys^15-Ile^14-Phe^13-Gly^12-Ser^11-Leu^10-Ala^9-Phe^8-Leu^7-Lys^6-Cys^5-Cys^4-Tyr^3-Ser^2-Leu^1-CONH2 [^99mTc-HER2]
Log P (Octanol/Saline) [1]: 1.38 ± 0.06
HPLC Retention Time [2]: 20.0 min
Kd ([8]; SKBR3, ~300,000 cells, 0.1-30 nM radiopeptide, 60 min, room temperature, duplicate, non-specific with ~200-fold excess unlabeled peptide, mean ± SD): 50 ± 14.2 nM
binding affinity higher for SKBR3 cells than MCF7 and T47D cell lines ([8]; ratio of Kd values): more than 3 fold
Kd [3]: 158 ± 24.6 nM
Kd [4]: 169 ± 22.3 nM
% Internalization (MCF7 cells): 12.16 ± 3.20%
% Internalization (SKBR3 cells): 19.90 ± 5.35%
% Internalization (T47D cells): 11.85 ± 2.83%
radioactivity found in the urine [5]: up to 40.0 ± 5.10 % ID
tumor uptake ([6]; 1 h p.i.): 0.66 ± 0.13 % ID/g
tumor uptake ([6]; 4 h p.i.): 0.31 ± 0.10 % ID/g
tumor-to-blood ratio ([9]; SKBR3 xenografts, 1 h p.i.): 1.54
tumor-to-muscle ratio ([9]; SKBR3 xenografts, 1 h p.i.): 9.37
tumor-to-blood ratio ([9]; SKBR3 xenografts, 4 h p.i.): 1.34
tumor-to-muscle ratio ([9]; SKBR3 xenografts, 4 h p.i.): 8.71
washout from the tumors ([9]; SKBR3 xenografts, over 4 h): 57%
tumor uptake, blocked ([9]; SKBR3 xenografts, 100 μg of HER2 peptide 30 min before injection of radiopeptide): 1.07 ± 0.24 % ID/g
reduction of tumor uptake by blocking dose ([9]; SKBR3 xenografts, 100 μg of HER2 peptide 30 min before, P = 0.02): approximately 62%
hepatobiliary excretion (liver + intestines) ([9]; mouse, in vivo): below 15 % ID
kidney accumulation and retention ([9]; mouse, in vivo): up to 10 % ID/g
radioactivity excreted in the urine ([9]; mouse, in vivo): up to 41 % ID
tumor uptake ([9]; SKBR3 xenografts, 1 h p.i., unblocked): 2.81 ± 0.79 % ID/g
tumor uptake ([9]; SKBR3 xenografts, 4 h p.i.): 1.22 ± 0.25 % ID/g
gamma camera imaging of tumor ([9]; nude mouse, SKBR3 xenografts, 1 h p.i., ~200 μCi i.v.): detectable in the image
tumor uptake (MCF7 tumor xenografts; [12]): 1.33 ± 0.41 % ID/g
tumor uptake (MCF7 tumor xenografts; MCF7 xenografts, 4 h p.i.): 0.91 ± 0.22 % ID/g
tumor uptake (T47D tumor xenografts; T47D xenografts, 1 h p.i.): 1.25 ± 0.32 % ID/g
tumor uptake (T47D tumor xenografts; T47D xenografts, 4 h p.i.): 0.80 ± 0.17 % ID/g

99mTc-HER2 hybrid peptide (Acetyl-Gly-Gly-Cys-ALA-Lys-Ile-Phe-Gly-Ser-Leu-Ala-Phe-Leu-Lys-Cys-Cys-Tyr-Ser-Leu-CONH2)
Kd [10]: 158 nM
Kd [11]: 169 nM

Reference: PMC6749314, “Development of the Tumor-Specific Antigen-Derived Synthetic Peptides as Potential Candidates for Targeting Breast and Other Possible Human Carcinomas” (Molecules, 2019)
